88 compounds from a melting point compilation (Tetko et al.; mined from patent text by program, amines drawn as free bases though some values may be those of a salt) can be followed below.

A value given as a limit tells only on which side of the number the result lay.

What is called melting point is the temperature, or range, at which the solid turns liquid.

On to `Cc1cc(NC(=O)C(C)(O)COc2cccc(Cl)c2)ccc1[N+](=O)[O-]` (stereo not drawn), for which the melting point lay within 104 to 107 °C.
The value for `CC(=O)N1N=C(c2ccc(N)cc2)c2cc(Br)ccc2CC1C` (stereo not drawn) was 205 to 208 °C; that for `NCCSc1ccc(CCC(=O)O)cc1` was 90 to 110 °C.
The figure for `CC#COc1ccc2oc3ccccc3c(=O)c2c1` is 153 to 154 °C.
On to `O=C(NCc1cccnc1)c1ccc(OCc2ccc3ccccc3n2)cc1C1(c2ccccc2)CC2CCC1C2` (stereo not drawn), for which the melting point was in the range of 179 to 181 °C.
The figure for `O=C(CN1CCC(Cc2ccccc2)CC1)Nc1ccc2[nH]cnc2c1` is 185 to 189 °C.
The figure for `CC(C(N)=O)c1ccc2c(c1)Sc1ccccc1CC2=O` (stereo not drawn) is 178 to 179 °C; for `CC(C)Nc1nc(NN)nc(Cl)c1-c1c(F)cc(F)cc1F` it is 143 to 150 °C; for `Cc1nc2c(O)cccc2n1C` it is 243 to 245 °C.
The value for `CCCCCCCCCCCCCCCCCC(=O)N1CC1C#N` (stereo not drawn) was 85 to 88 °C; that for `COc1ccc(-c2cc(C)cn2-c2ccc(S(C)(=O)=O)cc2)cc1` was 159 to 161 °C; that for `c1ccc(CC2CCc3ccccc3N2)cc1` (stereo not drawn) was 187 to 190 °C.
The compound `CCn1cc(C(=O)O)c(=O)c2cc(F)c(N3CCN(S(=O)(=O)c4ccc(NC(C)=O)cc4)CC3)c(F)c21` displayed a melting point of 276 to 277 °C.
The figure for `COc1ccccc1-c1ccc(Cl)c2c1S(=O)(=O)NC(C1CCCCC1)=N2` is 100 to 105 °C.
The value for `NC(=O)c1ccnc(N2CCN(Cc3ccc(F)cc3)C2=O)c1` was 206 to 208 °C; that for `COc1ccc(CONC(=O)Cn2nnnc2S)cc1` was 167 to 168 °C.
The figure for `CCCCCCCOc1ccc(C(=O)O)cc1OCCCCCCC` is 122 to 123 °C; for `CC(=O)N1CCC(CCC(=O)c2ccc3c(c2)CCN3c2ccncc2)CC1` it is 157 to 158 °C.
Compound `O=C(O)CP(=O)(O)C(CCCc1ccccc1)NC(=O)c1ccccc1` (stereo not drawn) gave a melting point of 170 to 175 °C.
The figure for `Cn1ccc(-c2ccc(C(=O)N3Cc4cccnc4Nc4ccccc43)c(Cl)c2)n1` is 196 to 197 °C.
The figure for `CC(Sc1ncnc2[nH]cnc12)c1oc2ccc(Br)cc2c(=O)c1-c1ccccc1` (stereo not drawn) is 234 to 237 °C.
The figure for `Cc1ccc(-c2nnc(N(CCCCOCC(=O)O)C(C)C)nc2-c2ccc(C)cc2)cc1` is 119 to 121 °C.
For `COc1cc(CN2C(C(=O)O)=C(c3ccc4c(c3)OCO4)c3ccccc3S2(=O)=O)cc2c1OCO2`, the melting point was in the range of 181 to 182 °C.
For the compound `COC(=O)c1[nH]c(C)c(C)c1OCCCl`, the melting point is 122 to 123 °C.
The figure for `CC(=O)C1C(Cl)CC2C3CCC4CC(O)CCC4(C)C3C(=O)CC21C` (stereo not drawn) is 226 to 227 °C.
As for `O=C(NC(=O)N1CCC(Cc2ccccc2)CC1)c1ccc(OCc2ccccc2)cc1`, the melting point is 155 to 156 °C.
Turning to `OCCNc1ccc(C2CCCCC2)cc1`, the melting point is 39 to 41 °C.
The figure for `NCC(COC(C(F)(F)F)(C(F)(F)F)C(F)(F)F)(COC(C(F)(F)F)(C(F)(F)F)C(F)(F)F)C(=O)O` is 182 to 184 °C; for `COc1ccc(C(=O)Nc2c(Cl)cncc2Cl)c2c3ccccc3n(Cc3ccccc3)c12` it is 215 to 217 °C; for `Cc1nc2c(OCc3ccccc3)cc(CO)cc2n1C` it is 213 to 214 °C.
The figure for `Cc1c(C(=O)O)oc2cc(OCCNC[C@H](O)COc3ccccc3)ccc12` is 110 to 111 °C; for `COc1ccnc(CCc2nc3cc(-c4ccc(S(=O)(=O)N(C)C)c(F)c4)cnc3[nH]2)c1` it is 211 to 212 °C; for `CN1C(=O)CC[C@]2(C)c3ccc(-c4ccc(C(C)(C)C)cc4)cc3CC[C@@H]12` it is 141 to 147 °C.
`CC(C)Cn1c(=O)n(C)c(=O)c2c(S(=O)(=O)N3CC[C@@H](O)C3)c(Cc3cccnc3)sc21` came in with a melting point of 161 to 162 °C.
As to `CC(=O)OC1CCC2(C)C(CCC3C2CC(OC(C)=O)C2(C)C(C(C)CCC=O)CCC32)C1` (stereo not drawn), the melting point turned out to be 145 °C.
The compound `O=C(Cl)C=CC=Cc1ccccc1` returned a melting point of 51 to 52 °C.
The value for `O=C(O)COc1cc2onc(-c3ccccc3F)c2cc1Br` was 223 to 224 °C.
The value for `CCCC(O)C1(c2onc(-c3ccc(O)cc3)c2-c2ccccc2)CC1` (stereo not drawn) was 139 to 140 °C; that for `Fc1cc(F)nc(NCc2ccccc2)n1` was 70 to 73 °C.
In turn, `C[C@@H]1CNCc2cc3cccc(OC(F)(F)F)c3n21` displayed a melting point of 58 to 60 °C.
The figure for `C[C@H]1[C@H](N)CN1C(c1ccccc1)c1ccccc1` (relative stereo) is 68 to 69 °C; for `OC1(c2ccc3c(c2)OCO3)CCC2(CC1)OCCO2` it is 95 to 96 °C; for `Nc1ccc2ccc(Nc3ccccc3)nc2n1` it is 250 °C.
The value for `CS(=O)(=O)CC(=O)Nc1ccccc1` was 140 to 141 °C.
The figure for `CCOC(=O)Cc1ccc(NC(=O)C(CCc2ccccc2)NS(=O)(=O)c2ccc(Br)cc2)cc1` (racemic) is 130 to 131 °C; for `c1ccc2c(c1)CCCC1C2=NNC1c1ccncc1` (stereo not drawn) it is 152 to 157 °C.
Regarding `CCC1(CC)C(=O)Nc2ccccc21`, the melting point fell in the range of 156 to 159 °C.
The value for `CC(=O)NC1CCC(=O)C(=CN(C)C)C1` (stereo not drawn) was 132 to 133 °C; that for `CCNc1nc(SC)ncc1C(=O)O` was 188 °C.
The figure for `COc1cc(N)c2nccc(C)c2c1Oc1cccc(C(F)(F)F)c1` is 113 to 115 °C.
The value for `CN(SC1CCCCCCC1Cl)C(=O)Nc1ccc(Cl)c(Cl)c1` (stereo not drawn) was 90 to 91 °C; that for `Cc1oc2c(C)cc(C=O)cc2c1C` was 57 to 58 °C.
Turning to `COc1ccc(-c2nnc3c4ccccc4c(Nc4cccc(-c5nn[nH]n5)c4)nn23)cc1`, the melting point lay in the range of 305 to 308 °C.
Take `CCCOc1ccccc1-c1nc2c(C(=O)NCC)cccc2c(=O)[nH]1`: the melting point is 161 to 162 °C.
The value for `COc1ccc(C=C2SC(=S)N(CC(=O)O)C2=O)cc1OCc1ccccc1` was 234 to 239 °C.
Compound `CCCNCCC1Cc2ccc(-c3ccc(=O)[nH]n3)cc2C1` (stereo not drawn) gave a melting point of 150 to 151 °C.
The figure for `CN(C)CCCC1(C#N)c2ccccc2COc2ccccc21` (stereo not drawn) is 112 to 114 °C; for `COc1ccc(-c2nn(-c3ccsc3)c3c(Cl)cccc23)cc1` it is 111 °C.
In the case of `COC1(OC)CN(c2cc3c(cc2F)c(=O)c(C(=O)O)cn3-c2ccc(F)cc2F)CC1C` (stereo not drawn), the melting point is 193 to 194 °C.
The value for `CC(C)(C)OC(=O)Nn1c(=O)cc2n(C3CC3)c3cc(N4CCN(C(=O)OC(C)(C)C)CC4)c(F)cc3n2c1=O` was 219 to 220 °C; that for `C=C1CC2C(=CCC3(C)C2CC(C)C3(O)C(C)=O)C2(C)CCC(=O)C=C12` (stereo not drawn) was 157 to 158 °C.
The figure for `O=[N+]([O-])c1ccc(C2OCCc3cc4c(cc32)OCO4)cc1` (stereo not drawn) is 149 to 150 °C; for `CCNc1n[nH]c2ccc(C3C(C#N)=C(C)NC(C)=C3C#N)cc12` it is 248 °C.
The value for `COc1ccc(OC)c(-c2nc3ncccc3[nH]2)c1` was 235 °C; that for `CN1CC(CNNC(=S)Nc2ccccc2)CC2c3cccc4[nH]cc(c34)CC21` (stereo not drawn) was 205 to 206 °C; that for `CCCC[C@]1(CC)CS(=O)(=O)c2cc(OC)c(Br)cc2[C@@H](c2ccccc2)N1O` was 202 to 204 °C.
For the compound `O=c1[nH]c2cc(Cl)ccc2c(O)c1-c1ccccc1F`, the melting point is over 350 °C.
In turn, `O=C1CCC(c2ccccc2)(c2ccccc2)C2CN(C(Cc3ccccc3)=NCc3ccc(Cl)cc3)CC12` (stereo not drawn) registered a melting point of 198 °C.
The value for `CC(C)N1CCN(CCN2CCC(c3noc4cc(F)ccc34)CC2)C1=O` was 121 to 123 °C; that for `Cc1cc(N2C=CC(O)CC2)nn2cnnc12` (stereo not drawn) was 171 to 173 °C.
`CCOC(=O)c1cc2c(=O)c3cc(C(C)CO)ccc3oc2nc1N` (stereo not drawn) showed a melting point of 255 to 256 °C.
The figure for `NC(=S)Nc1ncccn1` is 262 to 264 °C; for `COc1cccc(C(=C/C=C/C(=O)NC(C)(C)CCCc2cccnc2)c2cccc(OC)c2)c1` it is 120 to 121 °C.
The figure for `CC(C)(C)OC(=O)NC(C(=O)O)C1=CSCCO1` (stereo not drawn) is 160 °C; for `CNC(=O)c1ccccc1Nc1nc(Nc2cc3c(cc2OC)CCN(CC(=O)N(C)C)CC3)ncc1Cl` it is 83 to 89 °C.
The value for `CCC(=O)Nc1ccc(Br)c(-n2nc(CC)n(Cc3ccc(-c4ccccc4S(=O)(=O)NC(=O)OC(C)(C)C)cc3F)c2=O)c1` was 146 to 148 °C; that for `NC(=S)NN=C(CCCOC(=O)Nc1cccc2ccccc12)c1ccccc1` was 189 to 192 °C.
`COc1cc(Cc2cnc(N)nc2N)c2c(c1OC)OC(C)CC2` (stereo not drawn) displayed a melting point of 239 to 240 °C.
The figure for `O=CNNc1ccc(NC(=S)N2CCCCC2)cc1` is 174 to 176 °C; for `CN1CC=C(CC(=O)N2c3ccccc3NC(=O)c3ccccc32)CC1` it is 200 to 201 °C.
Turning to `CNC(=NS(C)(=O)=O)NCCCCCc1nc(N)nc(NC(N)=NCC(F)(F)F)n1`, the melting point fell in the range of 131 to 133 °C.
The value for `COc1ccc(COc2ncccc2C(=O)O)cc1OC1CC2CCC1C2` (stereo not drawn) was 50 °C.
The value for `COc1ccc(CC(C)NCC(O)c2cccc(Cl)c2)cc1` (stereo not drawn) was 80 to 87 °C; that for `O=C(O)[C@H](Cc1ccccc1)NC(=O)[C@@H]1CCCN1S(=O)(=O)c1ccc(Cl)cc1` was 69 to 71 °C; that for `N#Cc1cnn2c(-c3cccnc3)ccnc12` was 258 to 260 °C.
The value for `COc1cc(N2CCCN(C[C@@H](C)O)CC2)ccc1Nc1ncc2ccc(-c3ccccc3N(C)S(C)(=O)=O)n2n1` was 93 to 99 °C; that for `Cn1c(COc2ccc(CC3SC(=O)NC3=O)cc2)nc2ccc(OCCc3ccc(NC(=O)Nc4ccc(C(F)(F)F)cc4)cc3)cc21` (stereo not drawn) was 145 to 147 °C.
Compound `CS(=O)(=O)Nc1cc2occ(NC=O)c(=O)c2cc1Oc1ccccc1` gave a melting point of 236 to 238 °C.
